{"source": "patent US20240057606A1", "about": "“MOLECULES HAVING CERTAIN PESTICIDAL UTILITIES, AND INTERMEDIATES, COMPOSITIONS, AND PROCESSES RELATED THERETO” (priority 2020, published 2024)", "type_in_all_cases": "in vivo", "key": {"[1]": {"system": "Beet Armyworm (Spodoptera exigua, \"BAW\")", "assay": "Bioassay on beet armyworm, 128-well diet tray assay", "details": "168 h, 50 μg/cm^2 of test compound on artificial diet, second instar larvae, 25° C., five to seven days, average of eight wells, read-out: BAW % Control (or Mortality) rating", "experimental": "(§1) Bioassays on Beet Armyworm (Spodoptera exigua, “BAW”) and Cabbage Looper (Trichoplusia ni, “CL”)\n(§2) Certain molecules disclosed in this document were tested against BAW and CL using procedures described in the following examples. In the reporting of the results, the “BAW & CL Rating Table” was used (See Table Section).\nBioassays on BAW were conducted using a 128-well diet tray assay. one to five second instar BAW larvae were placed in each well (3 mL) of the diet tray that had been previously filled with 1 mL of artificial diet to which 50 μg/cm^2 of the test compound (dissolved in 50 μL of 90:10 acetone-water mixture) had been applied (to each of eight wells) and then allowed to dry. Trays were covered with a clear self-adhesive cover and held at 25° C., 14:10 light-dark cycle for five to seven days. Percent mortality was recorded for the larvae in each well; activity in the eight wells was then averaged. The results are indicated in the table entitled “Table ABC: Biological Results” (See Table Section)."}, "[2]": {"system": "Cabbage Looper (Trichoplusia ni, \"CL\")", "assay": "Bioassay on cabbage looper, 128-well diet tray assay", "details": "168 h, 50 μg/cm^2 of test compound on artificial diet, second instar larvae, 25° C., five to seven days, average of eight wells, read-out: CL % Control (or Mortality) rating", "experimental": "as §1, §2\nBioassays on CL were conducted using a 128-well diet tray assay. one to five second instar CL larvae were placed in each well (3 mL) of the diet tray that had been previously filled with 1 mL of artificial diet to which 50 μg/cm^2 of the test compound (dissolved in 50 μL of 90:10 acetone-water mixture) had been applied (to each of eight wells) and then allowed to dry. Trays were covered with a clear self-adhesive cover and held at 25° C., 14:10 light-dark cycle for five to seven days. Percent mortality was recorded for the larvae in each well; activity in the eight wells was then averaged. The results are indicated in the table entitled “Table ABC: Biological Results” (See Table Section)."}, "[3]": {"system": "Yellow Fever Mosquito (Aedes aegypti, \"YFM\")", "assay": "Bioassay on yellow fever mosquito larvae, 96-well plate assay", "details": "4000 ppm DMSO master solution diluted with 90:10 water:acetone; about 1 day-old larvae; room temperature; scored after 3 days", "experimental": "Bioassays On Yellow Fever Mosquito (Aedes aegypti, “YFM”)\nCertain molecules disclosed in this document were tested against YFM using procedures described in the following paragraph. In the reporting of the results, the “YFM Rating Table” was used (See Table Section).\nMaster plates containing 400 μg of a molecule dissolved in 100 μL of dimethyl sulfoxide (DMSO) (equivalent to a 4000 ppm solution) are used. A master plate of assembled molecules contains 15 μL per well. To this plate, 135 μL of a 90:10 water:acetone mixture is added to each well. A robot (Biomek® NXP Laboratory Automation Workstation) is programmed to dispense 15 μL aspirations from the master plate into an empty 96-well shallow plate (“daughter” plate). There are 6 reps (“daughter” plates) created per master. The created daughter plates are then immediately infested with YFM larvae.\nThe day before plates are to be treated, mosquito eggs are placed in Millipore water containing liver powder to begin hatching (4 g. into 400 mL). After the daughter plates are created using the robot, they are infested with 220 μL of the liver powder/larval mosquito mixture (about 1 day-old larvae). After plates are infested with mosquito larvae, a non-evaporative lid is used to cover the plate to reduce drying. Plates are held at room temperature for 3 days prior to grading. After 3 days, each well is observed and scored based on mortality."}}}
{"molecule": "Cn1ccc2ccc(N3C(=O)CS/C3=N\\C(=O)Nc3ccc(-c4ncn(-c5ccc(OC(F)(F)F)cc5)n4)cc3F)cc21", "note": "[F14, (Z)-1-(2-Fluoro-4-(1-(4-(trifluoromethoxy)phenyl)-1H-1,2,4-triazol-3-yl)phenyl)-3-(3-(1-methyl-1H-indol-6-yl)-4-oxothiazolidin-2-ylidene)urea]", "values": [{"measurement": "mortality at 50 µg/cm2", "setting": "[1]", "value": "50 to 100", "unit": "%"}, {"measurement": "mortality at 50 µg/cm2", "setting": "[2]", "value": "50 to 100", "unit": "%"}, {"measurement": "YFM % Control (or Mortality) rating", "setting": "[3]", "value": "A (80-100)"}]}
{"molecule": "Cn1ccc2c(N3C(=O)CS/C3=N\\C(=O)Nc3ccc(-c4ncn(-c5ccc(OC(F)(F)F)cc5)n4)cc3F)cccc21", "note": "[F15, (Z)-1-(2-Fluoro-4-(1-(4-(trifluoromethoxy)phenyl)-1H-1,2,4-triazol-3-yl)phenyl)-3-(3-(1-methyl-1H-indol-4-yl)-4-oxothiazolidin-2-ylidene)urea]", "values": [{"measurement": "mortality at 50 µg/cm2", "setting": "[1]", "value": "50 to 100", "unit": "%"}, {"measurement": "mortality at 50 µg/cm2", "setting": "[2]", "value": "50 to 100", "unit": "%"}, {"measurement": "YFM % Control (or Mortality) rating", "setting": "[3]", "value": "A (80-100)"}]}
{"molecule": "O=C(/N=C1\\SCC(=O)N1c1cccc2ccccc12)Nc1ccc(-c2ncn(-c3ccc(OC(F)(F)F)cc3)n2)cc1F", "note": "[F16, (Z)-1-(2-Fluoro-4-(1-(4-(trifluoromethoxy)phenyl)-1H-1,2,4-triazol-3-yl)phenyl)-3-(3-(naphthalen-1-yl)-4-oxothiazolidin-2-ylidene)urea]", "values": [{"measurement": "mortality at 50 µg/cm2", "setting": "[1]", "value": "50 to 100", "unit": "%"}, {"measurement": "mortality at 50 µg/cm2", "setting": "[2]", "value": "50 to 100", "unit": "%"}, {"measurement": "YFM % Control (or Mortality) rating", "setting": "[3]", "value": "A (80-100)"}]}
{"molecule": "O=C(/N=C1\\SCC(=O)N1c1cccc2c1CCOC2)Nc1ccc(-c2ncn(-c3ccc(OC(F)(F)F)cc3)n2)cc1F", "note": "[F18, (Z)-1-(2-Fluoro-4-(1-(4-(trifluoromethoxy)phenyl)-1H-1,2,4-triazol-3-yl)phenyl)-3-(3-(isochroman-5-yl)-4-oxothiazolidin-2-ylidene)urea]", "values": [{"measurement": "mortality at 50 µg/cm2", "setting": "[1]", "value": "50 to 100", "unit": "%"}, {"measurement": "mortality at 50 µg/cm2", "setting": "[2]", "value": "50 to 100", "unit": "%"}, {"measurement": "YFM % Control (or Mortality) rating", "setting": "[3]", "value": "A (80-100)"}]}
{"molecule": "O=C(/N=C1\\SCC(=O)N1c1cccc2c1COC2=O)Nc1ccc(-c2ncn(-c3ccc(OC(F)(F)F)cc3)n2)cc1F", "note": "[F19, (Z)-1-(2-Fluoro-4-(1-(4-(trifluoromethoxy)phenyl)-1H-1,2,4-triazol-3-yl)phenyl)-3-(4-oxo-3-(1-oxo-1,3-dihydroisobenzofuran-4-yl)thiazolidin-2-ylidene)urea]", "values": [{"measurement": "mortality at 50 µg/cm2", "setting": "[1]", "value": "50 to 100", "unit": "%"}, {"measurement": "mortality at 50 µg/cm2", "setting": "[2]", "value": 0, "unit": "%"}, {"measurement": "YFM % Control (or Mortality) rating", "setting": "[3]", "value": "D (No activity noticed in this bioassay)"}]}
{"molecule": "O=C(/N=C1\\SCC(=O)N1c1cccc2occc12)Nc1ccc(-c2ncn(-c3ccc(C(F)(F)C(F)(F)F)cc3)n2)cc1F", "note": "[F20, (Z)-1-(3-(Benzofuran-4-yl)-4-oxothiazolidin-2-ylidene)-3-(2-fluoro-4-(1-(4-(perfluoroethyl)phenyl)-1H-1,2,4-triazol-3-yl)phenyl)urea]", "values": [{"measurement": "mortality at 50 µg/cm2", "setting": "[1]", "value": "50 to 100", "unit": "%"}, {"measurement": "mortality at 50 µg/cm2", "setting": "[2]", "value": "50 to 100", "unit": "%"}, {"measurement": "YFM % Control (or Mortality) rating", "setting": "[3]", "value": "D (No activity noticed in this bioassay)"}]}
{"molecule": "O=C(/N=C1\\SCC(=O)N1c1cccc2ccoc12)Nc1ccc(-c2ncn(-c3ccc(C(F)(F)C(F)(F)F)cc3)n2)cc1F", "note": "[F21, (Z)-1-(3-(Benzofuran-7-yl)-4-oxothiazolidin-2-ylidene)-3-(2-fluoro-4-(1-(4-(perfluoroethyl)phenyl)-1H-1,2,4-triazol-3-yl)phenyl)urea]", "values": [{"measurement": "mortality at 50 µg/cm2", "setting": "[1]", "value": "50 to 100", "unit": "%"}, {"measurement": "mortality at 50 µg/cm2", "setting": "[2]", "value": "50 to 100", "unit": "%"}, {"measurement": "YFM % Control (or Mortality) rating", "setting": "[3]", "value": "A (80-100)"}]}
{"molecule": "Cc1cc(-c2ncn(-c3ccc(OC(F)(F)C(F)(F)F)cc3)n2)ccc1NC(=O)/N=C1\\SCC(=O)N1c1cccc2occc12", "note": "[F22, (Z)-1-(3-(Benzofuran-4-yl)-4-oxothiazolidin-2-ylidene)-3-(2-methyl-4-(1-(4-(perfluoroethoxy)phenyl)-1H-1,2,4-triazol-3-yl)phenyl)urea]", "values": [{"measurement": "mortality at 50 µg/cm2", "setting": "[1]", "value": "50 to 100", "unit": "%"}, {"measurement": "mortality at 50 µg/cm2", "setting": "[2]", "value": "50 to 100", "unit": "%"}, {"measurement": "YFM % Control (or Mortality) rating", "setting": "[3]", "value": "A (80-100)"}]}
{"molecule": "Cc1cc(-c2ncn(-c3ccc(OC(F)(F)C(F)(F)F)cc3)n2)ccc1NC(=O)/N=C1\\SCC(=O)N1c1cccc2ccoc12", "note": "[F23, (Z)-1-(3-(Benzofuran-7-yl)-4-oxothiazolidin-2-ylidene)-3-(2-methyl-4-(1-(4-(perfluoroethoxy)phenyl)-1H-1,2,4-triazol-3-yl)phenyl)urea]", "values": [{"measurement": "mortality at 50 µg/cm2", "setting": "[1]", "value": "50 to 100", "unit": "%"}, {"measurement": "mortality at 50 µg/cm2", "setting": "[2]", "value": "50 to 100", "unit": "%"}, {"measurement": "YFM % Control (or Mortality) rating", "setting": "[3]", "value": "A (80-100)"}]}
{"molecule": "Cc1cc(-c2ncn(-c3ccc(OC(F)(F)C(F)(F)F)cc3)n2)ccc1NC(=O)/N=C1\\SCC(=O)N1c1cccc2c1ccn2C", "note": "[F27, (Z)-1-(3-(1-Methyl-1H-indol-4-yl)-4-oxothiazolidin-2-ylidene)-3-(2-methyl-4-(1-(4-(perfluoroethoxy)phenyl)-1H-1,2,4-triazol-3-yl)phenyl)urea]", "values": [{"measurement": "mortality at 50 µg/cm2", "setting": "[1]", "value": "50 to 100", "unit": "%"}, {"measurement": "mortality at 50 µg/cm2", "setting": "[2]", "value": "50 to 100", "unit": "%"}, {"measurement": "YFM % Control (or Mortality) rating", "setting": "[3]", "value": "A (80-100)"}]}
{"molecule": "Cc1cc(-c2ncn(-c3ccc(OC(F)(F)C(F)(F)F)cc3)n2)ccc1NC(=O)/N=C1\\SCC(=O)N1c1ccc2ccccc2c1", "note": "[F29, (Z)-1-(2-Methyl-4-(1-(4-(perfluoroethoxy)phenyl)-1H-1,2,4-triazol-3-yl)phenyl)-3-(3-(naphthalen-2-yl)-4-oxothiazolidin-2-ylidene)urea]", "values": [{"measurement": "mortality at 50 µg/cm2", "setting": "[1]", "value": "50 to 100", "unit": "%"}, {"measurement": "mortality at 50 µg/cm2", "setting": "[2]", "value": "50 to 100", "unit": "%"}, {"measurement": "YFM % Control (or Mortality) rating", "setting": "[3]", "value": "D (No activity noticed in this bioassay)"}]}
{"molecule": "Cc1cc(-c2ncn(-c3ccc(OC(F)(F)C(F)(F)F)cc3)n2)ccc1NC(=O)/N=C1\\SCC(=O)N1c1cccc2ncccc12", "note": "[F32, (Z)-1-(2-Methyl-4-(1-(4-(perfluoroethoxy)phenyl)-1H-1,2,4-triazol-3-yl)phenyl)-3-(4-oxo-3-(quinolin-5-yl)thiazolidin-2-ylidene)urea]", "values": [{"measurement": "mortality at 50 µg/cm2", "setting": "[1]", "value": "50 to 100", "unit": "%"}, {"measurement": "mortality at 50 µg/cm2", "setting": "[2]", "value": "50 to 100", "unit": "%"}, {"measurement": "YFM % Control (or Mortality) rating", "setting": "[3]", "value": "A (80-100)"}]}
{"molecule": "O=C(/N=C1\\SCC(=O)N1c1cccc2ncccc12)Nc1ccc(-c2ncn(-c3ccc(C(F)(F)F)cc3)n2)cc1F", "note": "[F33, (Z)-1-(2-Fluoro-4-(1-(4-(trifluoromethyl)phenyl)-1H-1,2,4-triazol-3-yl)phenyl)-3-(4-oxo-3-(quinolin-5-yl)thiazolidin-2-ylidene)urea]", "values": [{"measurement": "mortality at 50 µg/cm2", "setting": "[1]", "value": "50 to 100", "unit": "%"}, {"measurement": "mortality at 50 µg/cm2", "setting": "[2]", "value": "50 to 100", "unit": "%"}, {"measurement": "YFM % Control (or Mortality) rating", "setting": "[3]", "value": "A (80-100)"}]}
